Assay: Tolerability of CPT in 3-week mouse xenograft studies (ER2019-09-1B, ER2019-09-1C)
Assay type: in vivo
Protocol: This value is determined from the calculated free and total CPT concentrations in the sample. The “% free of total CPT” value provides the clearest indicator of drug substance stability during storage and use. […] The release specification for % free of total CPT in the drug substance is ≤3%. The stability specification for % free of total CPT in the drug substance is ≤5%. These limits are well below prior studies using CPT administered directly as a free drug. In two separate 3-week mouse xenograft studies (ER2019-09-1B, ER2019-09-1C) CPT itself was dosed and well-tolerated at 3 mg/kg which has a human equivalent dose of 9 mg CPT/m2.

Q: Which results are given for CC[C@@]1(O)C(=O)OCc2c1cc1n(c2=O)Cc2cc3ccccc3nc2-1 [CPT, 20 (S)-camptothecin]?
A: well-tolerated dose (3-week mouse xenograft studies): 3 mg/kg; human equivalent dose of tolerated dose (mouse, in vivo): 9 mg CPT/m2

Reference: patent US20250152734A1, “USES AND FORMULATIONS OF CAMPTOTHECIN (CPT)-CONTAINING NANOPARTICLES” (DANTARI, INC., priority 2022, published 2025)
